Results published in patent US20050113317A1, “Combination of dehydroepiandrosterone or dehydroepiandrosterone-sulfate with a cromone for treatment of asthma or chronic obstructive pulmonary disease” (priority 2003, published 2005).
Several values for one entry are separate records, joined by “and”; a condition that tells them apart may be missing. Equal values may be shown once.

Legend:
[1] = Particle size of jet-milled / spray-dried DHEA-S (Malvern Mastersizer X, light microscope); type: physicochemical; details: two batches, visual examination of dispersions
Method: Approximately 1 g sample was passed through the jet mill, once, and approximately 2 g sample were passed through the jet mill twice. […] The resulting solution was sonicated for 3 minutes and appeared fully dispersed. The dispersed solutions were tested on a Malvern Mastersizer X with a small volume sampler (SVS) attachment. One sample of dispersed material was tested 5 times. The median particle size or D (v, 0.5) of unmilled material was 52.56 μm and the % RSD (relative standard deviation) was 7.61 for the 5 values. The D (v, 0.5) for a single pass through the jet mill was 3.90 μm and the % RSD was 1.27, and the D (v, 0.5) from a double pass through the jet mill 3.25 μm and the % RSD was 3.10.
The solution was spray-dried with a B-191 Mini Spray-Drier (Buchi, Flawil, Switzerland) with an inlet temperature of 55° C., outlet temperature of 40° C., at 100% aspirator, at 10% pump, nitrogen flow at 40 mbar and spray flow at 600 units. The spray-dried product was suspended in hexane and Span85 surfactant added to reduce agglomeration. The dispersions were sonicated with cooling for 3-5 minutes for complete dispersion and the dispersed solutions tested on a Malvern Mastersizer X with a Small Volume Sampler (SVS) attachment. […] Visual examination by light microscope of the dispersions of each batch confirmed that spray drying produced small respirable size particles. […]

HT-29 SF cells [2] = test: Reversal of DHEA effect on cell cycle; type: cell-based, human; details: 25 FM DHEA
HT-29 SF cells [3] = test: DHEA effect on cell cycle (flow cytometry); type: cell-based, human
[4] = tested on: Intracellular adenosine in various Rat Tissues; test: In vivo effect on adenosine levels in rat tissues
Method: Folinic acid (50 mg/kg) was administered intraperitoneally once daily for fourteen days. […] Hearts were removed from animals and flash frozen in liquid nitrogen with 10 s of death. Liver and lungs were removed en bloc and flash frozen with 30 s of death. Brain tissue was subsequently dissected.

[5] = Solid-state stability with and without lactose at 50° C. (DHEA formed, HPLC); type: physicochemical; details: 1 week at 50° C.; neat and lactose blend
Text: These conditions were used to stress the formulation in order to predict its long-term stability results. […] The primary degradant is DHEA. […] The materials on accelerated storage become more cohesive with time as evidenced by clumping during sample weighing for chemical analysis. […] This is a considerable disadvantage since lactose is the most commonly used inhalation excipient for dry powder formulations. Continuing with the virtually anhydrous form would mean limiting formulations to neat powder or undertaking more comprehensive safety studies to use a novel excipient.

[6] = Solubility remarks in text; type: physicochemical; details: 10^-4 M; mast cell assay conditions
[7] = HPLC analysis of drug degradation during jet milling; type: physicochemical; details: HPLC peak area vs unmilled standard; single- and double-pass
Method: Two vials (A; single-pass; 150 mg) and (B double-pass; 600 mg) of the micronized drug were available for determining drug degradation during jet milling micronization. […] The chromatographic peak area for the HPLC assay of the unmilled drug standard solution (10 mg/ml) gave a value of 23,427. […] The chromatographic peak areas for vials A and B were 11,979 and 11,677, respectively.

[8] = Short-term solution stability of DHEA-S nebulizer formulation; type: physicochemical; details: for appearance / solution stability: 10 mg/mL in 0.12% NaCl
Method: Aliquots of this solution are filled into clear glass vials and stored at RT (24-26° C.) and at 40° C. The samples are checked daily for DHEA-S content, DHEA content, and appearance. For each time point, duplicate samples are withdrawn and diluted from each vial. […] The study is stopped on day three. […] The solution should easily be stable for the day of reconstitution in a clinical trial. The following section describes the aerosol properties of this formulation.

[9] = tested on: rat peritoneal mast cells; test: Mast cell degranulation (histamine secretion) after compound 48/80; type: cell-based
Method: We determined whether DHEA-sulfate would reduce mast cell degranulation after stimulation with compound 48/80 in rat peritoneal mast cells. Mast cell degranulation was quantified by measurement of histamine, a substance contained within the secretory granules of mast cells. The release of histamine is believed to parallel the release of leukotrienes and contribute to the respiratory dysfunction.
Freshly isolated rat peritoneal mast cells (2×10^5 cells) were pre-incubated for 5 min at 37° C. in a Balanced Salt Solution containing 150 mM NaCl (pH 7.4), 2.7 mM KCl, 0.9 mM CaCl2, 4 mM Na2HPO4, 2.7 mM KH2PO4, 1.75 mg/ml BSA and 0.1 μg/ml compound 48/80.
Following incubation, the mixture is cooled to 4° C. then centrifuged at 4500 rpm for 5 min. The supernatant is collected and mixed for 30 min at 4° C. with 5% TCA (trichloroacetic acid) to cause protein precipitation. After centrifugation at 9500×g for 15 min, the supernatant is collected and mixed with 0.25 M HCl. Thereafter, the samples are mixed with 2M NaOH and 0.2% OPT (ortho-phtalaldehyde) and incubated for 30 min at 4° C. in darkness, after which time the reaction is stopped by addition of 0.5 M H2SO4.
The amount of secreted histamine is quantified by measuring the fluorescence intensity at λex=360 nm and λem=450 nm using a spectrofluorimeter (GeminiXS, Molecular Devices). The results are expressed as a percent inhibition of control histamine secretion.

[10] = Solubility of DHEA-S in NaCl media; type: physicochemical
Text: Inhalation of pure water can produce a cough stimulus. […] The temperature effect is weaker at high NaCl concentrations.

[11] = 15° C., 20 mM Na^+, Ksp 1316 mM^2

Q: Which “mean particle size by light microscope” value [1] does the source give for `C[C@]12CC[C@H](OS(=O)(=O)[O-])CC1=CC[C@@H]1[C@@H]2CC[C@]2(C)C(=O)CC[C@@H]12.[Na+]` [Anhydrous DHEA-S] here?
A: 2.4 μm and 2.0 μm

Q: With `CC(C)CCC[C@@H](C)[C@H]1CC[C@H]2[C@@H]3CC=C4C[C@@H](O)CC[C@]4(C)[C@H]3CC[C@]12C` [CH, cholesterol] as the compound, how does the “prevention of DHEA-induced S phase depletion” value (HT-29 SF cells [2]; 72 hours) read?
A: no effect

Q: Which results are given for `C[C@]12CC[C@H](O)CC1=CC[C@@H]1[C@@H]2CC[C@]2(C)C(=O)CC[C@@H]12` [DHEA, 3β-hydroxyandrost-5-en-17-one]?
A: cell cycle distribution (HT-29 SF cells [3]; 200 μM DHEA, after 24 hours): more rapid increase in the percentage of cells in G1 and a decreased proportion of cells in S phase; cell cycle effect (HT-29 SF cells [3]; 25, 50, 200 μM, 24-72 hours): G1 block in HT-29 SF cells in a time-and dose-dependent manner; effect on tissue adenosine ([4]; rat, in vivo): multi-organ depletion of adenosine

Q: With `CC12CCC3C(CC=C4CC(OS(=O)(=O)[O-])CCC43C)C1CCC2=O.[Na+]` (centres unmarked) [DHEA-S Dihydrate] as the compound, how does the “DHEA generated on storage” value [5] read?
A: virtually no DHEA generated

Q: With `C[C@]12CC[C@H](OS(=O)(=O)[O-])CC1=CC[C@@H]1[C@@H]2CC[C@]2(C)C(=O)CC[C@@H]12.[Na+]` [DHEA-S, sodium dehydroepiandrostenone sulfate] as the compound, how does the “solubility under assay conditions” value [6] read?
A: highly limited

Q: What about the “degradation during jet milling micronization” value [7] of the same compound?
A: no detectable degradation

Q: What about the solution stability ([8]; 7.5 mg/mL of DHEA-S in 0.12% NaCl, RT) of the same compound?
A: stable for at least one day at RT

Q: And the “appearance / solution stability” value ([8]; 40° C.)?
A: became cloudy after two days of storage

Q: And the “appearance / solution stability” value ([8]; RT (24-26° C.))?
A: slight precipitate is observed on the third day

Q: What about the “maximal effect, inhibition of mast cell degranulation” value ([9]; at 0.1 uM, percent inhibition of control histamine secretion) of the same compound?
A: 69.9%

Q: And the “inhibition of mast cell degranulation” value ([9]; rat peritoneal mast cells, compound 48/80)?
A: concentration-dependent inhibition

Q: And the EC50 ([9]; rat peritoneal mast cells, compound 48/80, histamine secretion, read-out: EC50, inhibition of mast cell degranulation)?
A: 170 nM

Q: And the “estimated DHEA-S solution concentration” value [10, 11]?
A: 10.7 mg/mL

Q: And the “estimated DHEA-S^− solution concentration” value [10, 11]?
A: 27.5 mM

Q: What about the “solubility as a function of NaCl concentration” value ([10]; RT and refrigerated) of the same compound?
A: decrease with NaCl concentration

Q: And the “effect of 20 mM phosphate buffer on solubility” value ([10]; RT, buffered vs unbuffered)?
A: suppress the solubility

Q: For `C[C@@](O)(CCO)CC(=O)O` [MVA, mevalonic acid], which “prevention of DHEA-induced S phase depletion” value (HT-29 SF cells [2]; 48 hours) is on record?
A: partially prevented this effect

Q: Which “effect on tissue adenosine” value ([4]; rats, administered daily for two weeks) does the source give for `C[C@]12CCC(=O)C=C1CC[C@@H]1[C@@H]2CC[C@@]2(C)[C@H]1CC[C@]2(C)O` [Methyltestosterone] here?
A: multi-organ depletion of adenosine
